Measured values: patent publication US12441754B2, “Galactoside inhibitor of galectins” (GALECTO BIOTECH AB, priority 2019, dated 2025)

Key:
Galectin-1 = Galectin-1 (Homo sapiens, UniProt P09382); assay: fluorescence anisotropy assay, compound as inhibitor of galectin / fluorescein tagged saccharide probe interaction; type: binding
From the text: (§1) Anal. Biochem. 334: 36-47, (Sörme et al., 2004) and Monovalent interactions of Galectin-1 By Salomonsson, Emma; Larumbe, Amaia; Tejler, Johan; Tullberg, Erik; Rydberg, Hanna; Sundin, Anders; Khabut, Areej; Frejd, Torbjorn; Lobsanov, Yuri D.; Rini, James M.; et al, From Biochemistry (2010), 49(44), 9518-9532, (Salomonsson et al., 2010).

Galectin-3 = Galectin-3 (Homo sapiens, UniProt P17931); assay: as above; type: binding
Chain of Galectin-3 (P17931 whole entry): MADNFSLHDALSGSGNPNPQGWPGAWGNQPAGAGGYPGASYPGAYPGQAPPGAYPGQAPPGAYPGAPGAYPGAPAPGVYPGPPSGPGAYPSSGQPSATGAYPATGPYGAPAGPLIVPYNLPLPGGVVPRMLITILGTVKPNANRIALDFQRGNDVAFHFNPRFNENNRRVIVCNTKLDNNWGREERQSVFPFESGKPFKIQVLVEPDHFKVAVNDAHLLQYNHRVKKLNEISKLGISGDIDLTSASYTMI
From the text: as §1

Chain of Galectin-1 (P09382 whole entry): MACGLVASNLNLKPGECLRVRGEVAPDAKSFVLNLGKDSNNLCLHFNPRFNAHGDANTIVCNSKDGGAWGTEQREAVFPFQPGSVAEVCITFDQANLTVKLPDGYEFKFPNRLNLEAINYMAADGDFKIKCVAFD

Row | Compound | Kd (Galectin-1) | Kd (Galectin-3)
1 | CO[C@@H]1[C@@H](n2cc(-c3nc(Cl)c(Cl)s3)nn2)[C@@H](O)[C@@H](CO)O[C@@H]1Sc1cc(Br)cnc1C#N [Example 55, 5-Bromo-2-cyanopyridin-3-yl 3-[4-(4,5-dichlorothiazol-2-yl)-1H-1,2,3-triazol-1-yl]-3-deoxy-2-O-methyl-1-thio-α-D-galactopyranoside] | 150 nM | 28 nM
2 | CO[C@@H]1[C@@H](n2cc(-c3nc(C)c(Cl)s3)nn2)[C@@H](O)[C@@H](CO)O[C@@H]1Sc1cc(Br)cnc1C#N [Example 64, 5-Bromo-2-cyanopyridin-3-yl 3-[4-(5-chloro-4-methylthiazol-2-yl)-1H-1,2,3-triazol-1-yl]-3-deoxy-2-O-methyl-1-thio-α-D-galactopyranoside] | 280 nM | 220 nM
3 | CO[C@@H]1[C@@H](n2cc(-c3nc(C)c(Cl)s3)nn2)[C@@H](O)[C@@H](CO)O[C@@H]1Sc1cc(Br)ccc1C#N [Example 65, 5-Bromo-2-cyanophenyl 3-[4-(5-chloro-4-methylthiazol-2-yl)-1H-1,2,3-triazol-1-yl]-3-deoxy-2-O-methyl-1-thio-α-D-galactopyranoside] | 460 nM | 240 nM
4 | CO[C@@H]1[C@@H](n2cc(-c3nccs3)nn2)[C@@H](O)[C@@H](CO)O[C@@H]1Sc1cc(Cl)ccc1Cl [Example 66, 2,5-Dichlorophenyl 3-deoxy-2-O-methyl-3-[4-(2-thiazolyl)-1H-1,2,3-triazol-1-yl]-1-thio-α-D-galactopyranoside] | 220 nM | 4100 nM
5 | CO[C@@H]1[C@@H](n2cc(-c3nccs3)nn2)[C@@H](O)[C@@H](CO)O[C@@H]1Sc1cc(Br)ccc1Cl [Example 67, 5-Bromo-2-chlorophenyl 3-deoxy-2-O-methyl-3-[4-(2-thiazolyl)-1H-1,2,3-triazol-1-yl]-1-thio-α-D-galactopyranoside] | 260 nM | 3500 nM
6 | CO[C@@H]1[C@@H](n2cc(-c3nccs3)nn2)[C@@H](O)[C@@H](CO)O[C@@H]1Sc1cc(Cl)ccc1F [Example 68, 5-Chloro-2-fluorophenyl 3-deoxy-2-O-methyl-3-[4-(2-thiazolyl)-1H-1,2,3-triazol-1-yl]-1-thio-α-D-galactopyranoside] | 250 nM | 4400 nM
7 | CO[C@@H]1[C@@H](n2cc(-c3nc(C)cs3)nn2)[C@@H](O)[C@@H](CO)O[C@@H]1Sc1cc(Br)ccc1F [Example 69, 5-Bromo-2-fluorophenyl 3-deoxy-3-[4-(4-methylthiazol-2-yl)-1H-1,2,3-triazol-1-yl]-2-O-methyl-1-thio-α-D-galactopyranoside] | 650 nM | 12000 nM
8 | N#Cc1ncc(Cl)cc1S[C@H]1O[C@H](CO)[C@H](O)[C@H](n2cc(-c3csc(Cl)n3)nn2)[C@H]1O [Example 70, 5-Chloro-2-cyanopyridin-3-yl 3-[4-(2-chlorothiazol-4-yl)-1H-1,2,3-triazol-1-yl]-3-deoxy-1-thio-α-D-galactopyranoside] | 330 nM | 420 nM
9 | CCO[C@@H]1[C@@H](n2cc(-c3csc(N)n3)nn2)[C@@H](O)[C@@H](CO)O[C@@H]1Sc1cc(Cl)cnc1C#N [Example 72, 5-Chloro-2-cyanopyridin-3-yl 3-[4-(2-aminothiazol-4-yl)-1H-1,2,3-triazol-1-yl]-3-deoxy-2-O-ethyl-1-thio-α-D-galactopyranoside] | 440 nM | 3000 nM
10 | Nc1nc(-c2cn([C@@H]3[C@@H](O)[C@@H](Sc4cc(Cl)cnc4-c4ncc[nH]4)O[C@H](CO)[C@@H]3O)nn2)cs1 [Example 74, 5-Chloro-2-(1H-imidazol-2-yl)pyridin-3-yl 3-[4-(2-aminothiazol-4-yl)-1H-1,2,3-triazol-1-yl]-3-deoxy-1-thio-α-D-galactopyranoside] | 360 nM | 11300 nM
11 | Cc1cnc(C#N)c(S[C@H]2O[C@H](CO)[C@H](O)[C@H](n3cc(-c4nc(Cl)cs4)nn3)[C@H]2O)c1 [Example 77, 2-Cyano-5-methylpyridin-3-yl 3-[4-(4-chlorothiazol-2-yl)-1H-1,2,3-triazol-1-yl]-3-deoxy-1-thio-α-D-galactopyranoside] | 830 nM | 860 nM
12 | Nc1nc(-c2cn([C@H]3[C@@H](O)[C@@H](CO)O[C@H](Sc4ccc(Cl)c(Cl)c4)[C@@H]3OCC(F)(F)F)nn2)cs1 [Example 78, 3,4-Dichlorophenyl 3-[4-(2-aminothiazol-4-yl)-1H-1,2,3-triazol-1-yl]-3-deoxy-2-O-(2,2,2-trifluoroethyl)-1-thio-α-D-galactopyranoside] | 520 nM | 7200 nM
13 | OC[C@H]1O[C@H](Sc2ccc(Cl)c(Cl)c2)[C@H](OCC(F)(F)F)[C@@H](n2cc(-c3csc(O)n3)nn2)[C@H]1O [Example 79, 3,4-Dichlorophenyl 3-deoxy-2-O-(2,2,2-trifluoroethyl)-3-[4-(2-hydroxythiazol-4-yl)-1H-1,2,3-triazol-1-yl]-1-thio-α-D-galactopyranoside] | 460 nM | 6800 nM
14 | C#Cc1cncc(S[C@H]2O[C@H](CO)[C@H](O)[C@H](n3cc(-c4nc(Cl)cs4)nn3)[C@H]2O)c1 [Example 80, 5-Ethynylpyridin-3-yl 3-[4-(4-chlorothiazol-2-yl)-1H-1,2,3-triazol-1-yl]-3-deoxy-1-thio-α-D-galactopyranoside] | 310 nM | 360 nM

Now those with a lower Kd (Galectin-1), led by results:

Row | Kd (Galectin-1) | Kd (Galectin-3) | Compound
15 | 130 nM | 7700 nM | OC[C@H]1O[C@H](Sc2cc(Cl)cnc2-c2ncc[nH]2)[C@H](O)[C@@H](n2cc(-c3csc(O)n3)nn2)[C@H]1O [Example 75, 5-Chloro-2-(1H-imidazol-2-yl)pyridin-3-yl 3-deoxy-3-[4-(2-hydroxythiazol-4-yl)-1H-1,2,3-triazol-1-yl]-1-thio-α-D-galactopyranoside]
16 | 120 nM | 3600 nM | CCO[C@@H]1[C@@H](n2cc(-c3nccs3)nn2)[C@@H](O)[C@@H](CO)O[C@@H]1Sc1cc(Cl)cnc1C#N [Example 71, 5-Chloro-2-cyanopyridin-3-yl 3-deoxy-2-O-ethyl-3-[4-(2-thiazolyl)-1H-1,2,3-triazol-1-yl]-1-thio-α-D-galactopyranoside]
17 | 96 nM | 2100 nM | CO[C@@H]1[C@@H](n2cc(-c3nccs3)nn2)[C@@H](O)[C@@H](CO)O[C@@H]1Sc1cc(Br)ccc1C#N [Example 56, 5-Bromo-2-cyanophenyl 3-deoxy-2-O-methyl-3-[4-(2-thiazolyl)-1H-1,2,3-triazol-1-yl]-1-thio-α-D-galactopyranoside]
18 | 80 nM | 3000 nM | CNC(=O)c1ccc(Br)cc1S[C@H]1OC(CO)[C@H](O)C(n2cc(-c3nccs3)nn2)C1OC (stereo partly drawn) [Example 61, 5-Bromo-2-(N-methyl-carbonyl)phenyl 3-deoxy-2-O-methyl-3-[4-(2-thiazolyl)-1H-1,2,3-triazol-1-yl]-1-thio-α-D-galactopyranoside]
19 | 78 nM | 3100 nM | CNC(=O)c1ccc(Cl)cc1S[C@H]1OC(CO)[C@H](O)C(n2cc(-c3nccs3)nn2)C1OC (stereo partly drawn) [Example 62, 5-Chloro-2-(N-methyl-carbonyl)phenyl 3-deoxy-2-O-methyl-3-[4-(2-thiazolyl)-1H-1,2,3-triazol-1-yl]-1-thio-α-D-galactopyranoside]
20 | 56 nM | 3200 nM | CO[C@@H]1[C@@H](n2cc(-c3csc(N)n3)nn2)[C@@H](O)[C@@H](CO)O[C@@H]1Sc1cc(Cl)ccc1C#N [Example 73, 5-Chloro-2-cyanophenyl 3-[4-(2-aminothiazol-4-yl)-1H-1,2,3-triazol-1-yl]-3-deoxy-2-O-methyl-1-thio-α-D-galactopyranoside]
21 | 54 nM | 2200 nM | CO[C@@H]1[C@@H](n2cc(-c3csc(N)n3)nn2)[C@@H](O)[C@@H](CO)O[C@@H]1Sc1cc(Br)ccc1C#N [Example 59, 5-Bromo-2-cyanophenyl 3-[4-(2-aminothiazol-4-yl)-1H-1,2,3-triazol-1-yl]-3-deoxy-2-O-methyl-1-thio-α-D-galactopyranoside]
22 | 54 nM | 2900 nM | CO[C@@H]1[C@@H](n2cc(-c3nc(C)cs3)nn2)[C@@H](O)[C@@H](CO)O[C@@H]1Sc1cc(Br)ccc1C#N [Example 63, 5-Bromo-2-cyanophenyl 3-deoxy-3-[4-(4-methylthiazol-2-yl)-1H-1,2,3-triazol-1-yl]-2-O-methyl-1-thio-α-D-galactopyranoside]
23 | 39 nM | 180 nM | CNC(=O)c1ccc(Br)cc1S[C@H]1OC(CO)[C@H](O)C(n2cc(-c3nc(Cl)cs3)nn2)C1OC (stereo partly drawn) [Example 60, 5-Bromo-2-(N-methyl-carbonyl)phenyl 3-[4-(4-chlorothiazol-2-yl)-1H-1,2,3-triazol-1-yl]-3-deoxy-2-O-methyl-1-thio-α-D-galactopyranoside]
24 | 22 nM | 2000 nM | CO[C@@H]1[C@@H](n2cc(-c3csc(O)n3)nn2)[C@@H](O)[C@@H](CO)O[C@@H]1Sc1cc(Br)ccc1C#N [Example 58, 5-Bromo-2-cyanophenyl 3-deoxy-3-[4-(2-hydroxythiazol-4-yl)-1H-1,2,3-triazol-1-yl]-2-O-methyl-1-thio-α-D-galactopyranoside]
25 | 21 nM | 140 nM | CO[C@@H]1[C@@H](n2cc(-c3nc(Cl)cs3)nn2)[C@@H](O)[C@@H](CO)O[C@@H]1Sc1cc(Br)ccc1C#N [Example 57, 5-Bromo-2-cyanophenyl 3-[4-(4-chlorothiazol-2-yl)-1H-1,2,3-triazol-1-yl]-3-deoxy-2-O-methyl-1-thio-α-D-galactopyranoside]
26 | 10 nM | 150 nM | CO[C@@H]1[C@@H](n2cc(-c3nc(Cl)cs3)nn2)[C@@H](O)[C@@H](CO)O[C@@H]1Sc1cc(Cl)cnc1-c1ccccn1 [Example 76, 5-Chloro-2-(pyridin-2-yl)-pyridin-3-yl 3-[4-(4-chlorothiazol-2-yl)-1H-1,2,3-triazol-1-yl]-3-deoxy-2-O-methyl-1-thio-α-D-galactopyranoside]
